Measured values reported in the CheMixHub viscosity set.
± gives the uncertainty stated by the source.

Test: xn = mol fraction of the nth substance listed

CC1CCCCC1 + CCCCO
303.15 K, 101.33 kPa
Conditions | viscosity [mPa·s]
x1 = 0.1 | 1.825 ± 0.014
x1 = 0.2604 | 1.383 ± 0.011
x1 = 0.42 | 1.072 ± 0.009
x1 = 0.5788 | 0.854 ± 0.007
x1 = 0.7414 | 0.719 ± 0.006
x1 = 0.9013 | 0.643 ± 0.006
x2 = 0.0995 | 0.6691 ± 0.0088
x2 = 0.2019 | 0.7305 ± 0.0095
x2 = 0.3088 | 0.8105 ± 0.01
x2 = 0.3988 | 0.89 ± 0.011
x2 = 0.5011 | 0.9898 ± 0.012
x2 = 0.5989 | 1.122 ± 0.014
x2 = 0.6911 | 1.272 ± 0.015
x2 = 0.7839 | 1.45 ± 0.017
x2 = 0.9179 | 1.858 ± 0.022

CCCNCCC + CCCCO
viscosity [mPa·s]
Conditions | 303.15 K | 313.15 K
101 kPa, x1 = 0.01005 | 2.225 ± 0.015 | –
101 kPa, x1 = 0.01919 | 2.196 ± 0.015 | –
101 kPa, x1 = 0.03366 | 2.165 ± 0.014 | –
101 kPa, x1 = 0.0409 | 2.145 ± 0.014 | –
101 kPa, x1 = 0.04956 | 2.121 ± 0.014 | –
101 kPa, x1 = 0.05853 | 2.098 ± 0.014 | –
101 kPa, x1 = 0.07021 | 2.064 ± 0.014 | –
101 kPa, x1 = 0.07906 | 2.04 ± 0.014 | –
101 kPa, x1 = 0.09184 | 2.006 ± 0.013 | –
101.33 kPa, x1 = 0.0954 | 2.038 ± 0.024 | 1.621 ± 0.019
101.33 kPa, x1 = 0.1904 | 1.797 ± 0.021 | 1.426 ± 0.017
101.33 kPa, x1 = 0.2859 | 1.567 ± 0.019 | 1.252 ± 0.015
101.33 kPa, x1 = 0.4163 | 1.299 ± 0.016 | 1.031 ± 0.013
101.33 kPa, x1 = 0.5205 | 1.106 ± 0.014 | 0.8851 ± 0.011
101.33 kPa, x1 = 0.615 | 0.9506 ± 0.012 | 0.7697 ± 0.01
101.33 kPa, x1 = 0.7107 | 0.8177 ± 0.011 | 0.6675 ± 0.009
101.33 kPa, x1 = 0.8108 | 0.6968 ± 0.0093 | 0.5735 ± 0.0079
101.33 kPa, x1 = 0.8924 | 0.6105 ± 0.0084 | 0.5037 ± 0.0072

CCOC(=O)c1ccccc1 + CCCCO
viscosity [mPa·s], 101.3 kPa
Conditions | x1 = 0.0664 | x1 = 0.1379 | x1 = 0.2152 | x1 = 0.299 | x1 = 0.3901 | x1 = 0.4897 | x1 = 0.5988 | x1 = 0.719 | x1 = 0.852
303 K | 2.029 ± 0.2 | 2.002 ± 0.2 | 1.967 ± 0.2 | 1.935 ± 0.19 | 1.902 ± 0.19 | 1.874 ± 0.19 | 1.839 ± 0.18 | 1.809 ± 0.18 | 1.78 ± 0.18
308 K | 1.87 ± 0.19 | 1.837 ± 0.18 | 1.814 ± 0.18 | 1.783 ± 0.18 | 1.754 ± 0.18 | 1.713 ± 0.17 | 1.679 ± 0.17 | 1.646 ± 0.17 | 1.618 ± 0.16
313 K | 1.599 ± 0.16 | 1.582 ± 0.16 | 1.567 ± 0.16 | 1.559 ± 0.16 | 1.54 ± 0.15 | 1.52 ± 0.15 | 1.499 ± 0.15 | 1.484 ± 0.15 | 1.47 ± 0.15
318 K | 1.444 ± 0.14 | 1.439 ± 0.14 | 1.426 ± 0.14 | 1.42 ± 0.14 | 1.407 ± 0.14 | 1.4 ± 0.14 | 1.39 ± 0.14 | 1.381 ± 0.14 | 1.372 ± 0.14
323 K | 1.324 ± 0.13 | 1.318 ± 0.13 | 1.309 ± 0.13 | 1.301 ± 0.13 | 1.29 ± 0.13 | 1.284 ± 0.13 | 1.274 ± 0.13 | 1.269 ± 0.13 | 1.259 ± 0.13

CCCNCCC + CCCCOCCO
viscosity [mPa·s], 100 kPa
Conditions | 298.15 K | 303.15 K | 308.15 K
x2 = 0.05 | 0.558 ± 0.1 | 0.519 ± 0.1 | 0.489 ± 0.1
x2 = 0.1003 | 0.62 ± 0.1 | 0.576 ± 0.1 | 0.538 ± 0.1
x2 = 0.1502 | 0.691 ± 0.1 | 0.64 ± 0.1 | 0.597 ± 0.1
x2 = 0.1999 | 0.775 ± 0.1 | 0.709 ± 0.1 | 0.662 ± 0.1
x2 = 0.2999 | 0.982 ± 0.1 | 0.888 ± 0.1 | 0.826 ± 0.1
x2 = 0.3998 | 1.254 ± 0.1 | 1.118 ± 0.1 | 1.035 ± 0.1
x2 = 0.5001 | 1.549 ± 0.1 | 1.37 ± 0.1 | 1.255 ± 0.1
x2 = 0.5999 | 1.887 ± 0.1 | 1.654 ± 0.1 | 1.51 ± 0.1
x2 = 0.6997 | 2.216 ± 0.1 | 1.935 ± 0.1 | 1.752 ± 0.1
x2 = 0.7999 | 2.527 ± 0.1 | 2.18 ± 0.1 | 1.97 ± 0.1
x2 = 0.8996 | 2.731 ± 0.1 | 2.356 ± 0.1 | 2.141 ± 0.1
x2 = 0.9499 | 2.787 ± 0.1 | 2.437 ± 0.1 | 2.209 ± 0.1

CCOC(C)(C)C + CCCCOCCO
viscosity [mPa·s], 101 kPa
Conditions | 293.15 K | 298.15 K | 303.15 K
x1 = 0.0499 | 2.901 ± 0.074 | 2.558 ± 0.066 | 2.239 ± 0.057
x1 = 0.1 | 2.603 ± 0.067 | 2.314 ± 0.059 | 2.038 ± 0.052
x1 = 0.1511 | 2.336 ± 0.06 | 2.092 ± 0.054 | 1.85 ± 0.047
x1 = 0.2007 | 2.107 ± 0.054 | 1.899 ± 0.049 | 1.687 ± 0.043
x1 = 0.2489 | 1.91 ± 0.049 | 1.731 ± 0.044 | 1.545 ± 0.04
x1 = 0.2999 | 1.725 ± 0.044 | 1.573 ± 0.04 | 1.412 ± 0.036
x1 = 0.3421 | 1.589 ± 0.041 | 1.455 ± 0.037 | 1.312 ± 0.034
x1 = 0.4018 | 1.417 ± 0.036 | 1.305 ± 0.034 | 1.186 ± 0.031
x1 = 0.45 | 1.296 ± 0.033 | 1.198 ± 0.031 | 1.094 ± 0.028
x1 = 0.5002 | 1.183 ± 0.03 | 1.097 ± 0.028 | 1.007 ± 0.026
x1 = 0.5521 | 1.079 ± 0.028 | 1.004 ± 0.026 | 0.925 ± 0.024
x1 = 0.5998 | 0.993 ± 0.026 | 0.926 ± 0.024 | 0.857 ± 0.022
x1 = 0.6538 | 0.906 ± 0.023 | 0.847 ± 0.022 | 0.786 ± 0.02
x1 = 0.6987 | 0.84 ± 0.022 | 0.788 ± 0.02 | 0.734 ± 0.019
x1 = 0.7501 | 0.773 ± 0.02 | 0.727 ± 0.019 | 0.679 ± 0.018
x1 = 0.8 | 0.714 ± 0.018 | 0.673 ± 0.017 | 0.632 ± 0.016
x1 = 0.8492 | 0.661 ± 0.017 | 0.626 ± 0.016 | 0.59 ± 0.015
x1 = 0.8997 | 0.612 ± 0.016 | 0.581 ± 0.015 | 0.55 ± 0.014
x1 = 0.9493 | 0.57 ± 0.015 | 0.541 ± 0.014 | 0.514 ± 0.013

CCCNCCC + CCCCOCCOCCO
viscosity [mPa·s], 100 kPa
Conditions | 298.15 K | 303.15 K | 308.15 K
x2 = 0.05007 | 0.5938 ± 0.15 | 0.5507 ± 0.15 | 0.5178 ± 0.15
x2 = 0.1002 | 0.6906 ± 0.15 | 0.6377 ± 0.15 | 0.5959 ± 0.15
x2 = 0.1502 | 0.8054 ± 0.15 | 0.7394 ± 0.15 | 0.6889 ± 0.15
x2 = 0.2 | 0.9457 ± 0.15 | 0.8562 ± 0.15 | 0.7964 ± 0.15
x2 = 0.3001 | 1.339 ± 0.15 | 1.183 ± 0.15 | 1.093 ± 0.15
x2 = 0.3999 | 1.79 ± 0.15 | 1.571 ± 0.15 | 1.437 ± 0.15
x2 = 0.4999 | 2.311 ± 0.15 | 1.998 ± 0.15 | 1.819 ± 0.15
x2 = 0.5997 | 2.952 ± 0.15 | 2.519 ± 0.15 | 2.248 ± 0.15
x2 = 0.7 | 3.584 ± 0.15 | 3.042 ± 0.15 | 2.71 ± 0.15
x2 = 0.7999 | 4.119 ± 0.15 | 3.507 ± 0.15 | 3.124 ± 0.15
x2 = 0.8998 | 4.617 ± 0.15 | 3.926 ± 0.15 | 3.5 ± 0.15
x2 = 0.9491 | 4.857 ± 0.15 | 4.132 ± 0.15 | 3.683 ± 0.15

CC(=O)[O-].CCCC[NH2+]CCO + CCCCn1cc[n+](C)c1.COP(=O)([O-])OC
viscosity [mPa·s], 101 kPa
Conditions | x1 = 0.1014 | x1 = 0.2979 | x1 = 0.4067 | x1 = 0.4989 | x1 = 0.8011 | x1 = 0.8913
293.15 K | 730.5 ± 28 | – | – | 502.5 ± 17 | 741.5 ± 30 | –
298.15 K | – | 392.5 ± 12 | 359.5 ± 11 | – | – | 632.5 ± 25

CC(=O)[O-].CCCC[NH2+]CCO + CCCCn1cc[n+](C)c1.O=S(=O)([N-]S(=O)(=O)C(F)(F)F)C(F)(F)F
Conditions | viscosity [mPa·s]
308.15 K, 101 kPa, x1 = 0.901 | 343.5 ± 11
